The results in this text go back to patent US20240342186A1, “PYRIDINE DERIVATIVES WITH N-LINKED CYCLIC SUBSTITUENTS AS cGAS INHIBITORS” (Boehringer Ingelheim International GmbH, priority 2021, published 2024).

One assay addresses cGAS (Homo sapiens (Human), UniProt Q8N884). Briefly: Human cGAS enzyme assay (hcGAS IC50, in vitro), cGAMP formation by RapidFire MS.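 Note: enzyme activated by 45 bp dsDNA with GTP and ATP (30 µM each), 60 min compound pre-incubation then 90 min reaction, cGAMP relative to cyclic-di-GMP internal standard, 8-point dilutions up to 10 µM.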 Type of assay: biochemical. Particulars: biochemical (in vitro) cGAS inhibition.
Assay [1] concerns cellular cGAS activity in baculovirus-stimulated THP1-Dual cells (IRF dependent Lucia luciferase reporter). The experiment in a line: Human cGAS cell assay: inhibition of IFN induction in virus-stimulated THP1 cells (THP1(vir) IC50). It counts as cell-based. The note with it: Homo sapiens, THP1-Dual; inhibition of IFN induction in virus-stimulated THP1 cells; read-out: THP1(vir) IC50. The gist of the method:
(§1)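 THP1-Dual cells with IRF-dependent Lucia luciferase reporter, stimulated by empty baculovirus (dsDNA delivery activating cGAS) or, for the counter assay, directly by cGAMP. 5000 cells/well, 8 concentrations from 10 μM top, 1% DMSO, 18 h at 37 °C; luminescence read, IC50 by 4-parameter logistic fit versus unstimulated low control.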

The subject of assay [2] is cGAMP-stimulated THP1-Dual cells (pathway directly downstream of cGAS). Briefly: cGAMP stimulated counter cell assay: inhibition of IFN induction in cGAMP-stimulated THP1 cells (THP1(cGAMP) IC50). Type of assay: cell-based, human. The note with it: for IC50: Homo sapiens, THP1-Dual, inhibition of IFN induction in cGAMP-stimulated THP1 cells, read-out: THP1(cGAMP) IC50 (converted); for Ratio THP1(cGAMP) IC50 / THP1(vir) IC50: selectivity for cGAS inhibition. In outline: as §1

Assay [3] relates to cellular cGAS activity in dsDNA-stimulated human whole blood. Briefly: Human whole blood assay (hWB IC50): IFNα2α production after dsDNA transfection. Type of assay: cell-based. The note with it: inhibition of IFN induction in dsDNA-stimulated human whole blood. In outline: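 Citrated blood from healthy donors preincubated 60 min at room temperature with compound (top 10 µM, ~1:5 steps, 0.1% DMSO), then transfected with dsDNA/Fugene and incubated 22 h at 37 °C. Plasma IFNα2α measured by MSD immunoassay; IC50 from 4-parameter fit of % control (stimulated vs unstimulated).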

cGAS, sequence (Q8N884 whole entry): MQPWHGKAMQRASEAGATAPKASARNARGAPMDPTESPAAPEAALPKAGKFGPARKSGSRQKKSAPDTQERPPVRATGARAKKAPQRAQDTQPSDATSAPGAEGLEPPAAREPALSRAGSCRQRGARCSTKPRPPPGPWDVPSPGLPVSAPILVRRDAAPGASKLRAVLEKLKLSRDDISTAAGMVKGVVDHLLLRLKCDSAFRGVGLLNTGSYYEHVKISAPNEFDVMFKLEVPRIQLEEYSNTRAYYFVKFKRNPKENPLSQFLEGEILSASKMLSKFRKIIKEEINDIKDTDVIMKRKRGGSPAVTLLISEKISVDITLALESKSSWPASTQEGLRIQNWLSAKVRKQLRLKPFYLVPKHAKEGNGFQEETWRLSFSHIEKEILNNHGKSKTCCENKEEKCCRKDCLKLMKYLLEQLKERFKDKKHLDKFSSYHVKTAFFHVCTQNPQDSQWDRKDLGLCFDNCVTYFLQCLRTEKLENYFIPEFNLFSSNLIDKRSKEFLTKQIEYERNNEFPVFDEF

Broadly, the IC50 is the point on the concentration scale where inhibition reaches its midpoint. `C[C@H]1COCCN1c1cc(-c2ccncc2)cnc1O[C@H]1C[C@@H](C(=O)O)N(c2nc(C(F)(F)F)nc3c2oc2ccccc23)C1` [Example 3.01, (2S,4S)-4-({5-[(3S)-3-methylmorpholin-4-yl]-[3,4′-bipyridin]-6-yl}oxy)-1-[4-(trifluoromethyl)-8-oxa-3,5-diazatricyclo[7.4.0.0^2,7]trideca-1(9),2(7),3,5,10,12-hexaen-6-yl]pyrrolidine-2-carboxylic acid]: the 50% inhibitory concentration (IC50) on cGAS is 0.009 µM; in assay [1] it was 0.982 µM; in assay [2], greater than 16.6 µM; in assay [3], 1.61 µM. Moreover, the “Ratio THP1(cGAMP) IC50 / THP1(vir) IC50” value in assay [2] is greater than 17.

For the molecule `CNc1cc(-c2cnc(O[C@H]3C[C@@H](C(=O)O)N(c4nc(C(F)(F)F)nc5c4oc4ccccc45)C3)c(N3CCOC[C@@H]3C)c2)ccn1` [Example 3.02], the IC50 on cGAS was 0.013 µM; in assay [1], 0.306 µM; in assay [2] it was 4.92 µM; in assay [3], 1.54 µM. The “Ratio THP1(cGAMP) IC50 / THP1(vir) IC50” value in assay [2] was determined as 16.

Take `C[C@H]1COCCN1c1cc(-c2ccncc2F)cnc1O[C@H]1C[C@@H](C(=O)O)N(c2nc(C(F)(F)F)nc3c2oc2ccccc23)C1` [Example 3.03]: the IC50 on cGAS was 0.007 µM; in assay [1] it was 0.899 µM; in assay [2], 12.8 µM; in assay [3] it was 2.12 µM. Further, the “Ratio THP1(cGAMP) IC50 / THP1(vir) IC50” value in assay [2] is 14.

On to `C[C@H]1COCCN1c1cc(-c2ccnc(C(F)F)c2)cnc1O[C@H]1C[C@@H](C(=O)O)N(c2nc(C(F)(F)F)nc3c2oc2ccccc23)C1` [Example 3.04], for which the IC50 on cGAS is 0.012 µM; in assay [1] it was 0.757 µM; in assay [2], 7.78 µM; in assay [3] it was 2.42 µM. In assay [2], the “Ratio THP1(cGAMP) IC50 / THP1(vir) IC50” value is on record as 10.

With `COc1cc(-c2cnc(O[C@H]3C[C@@H](C(=O)O)N(c4nc(C(F)(F)F)nc5c4oc4ccccc45)C3)c(N3CCOC[C@@H]3C)c2)ccn1` [Example 3.05], the IC50 is 0.014 µM against cGAS, 0.523 µM in assay [1], 6.71 µM in assay [2] and 1.83 µM in assay [3]. Also, the “Ratio THP1(cGAMP) IC50 / THP1(vir) IC50” value in assay [2] is 13.

As for `C[C@H]1COCCN1c1cc(-c2cnn(C)c2)cnc1O[C@H]1C[C@@H](C(=O)O)N(c2nc(C(F)(F)F)nc3c2oc2ccccc23)C1` [Example 3.06], the 50% inhibitory concentration (IC50) on cGAS was 0.009 µM; in assay [1], 0.525 µM; in assay [2] it was 21.4 µM; in assay [3], 1.99 µM. The “Ratio THP1(cGAMP) IC50 / THP1(vir) IC50” value in assay [2] came to 41.

With `CCn1cc(-c2cnc(O[C@H]3C[C@@H](C(=O)O)N(c4nc(C(F)(F)F)nc5c4oc4ccccc45)C3)c(N3CCOC[C@@H]3C)c2)cn1` [Example 3.07], the half-maximal inhibitory concentration (IC50) is 0.017 µM at cGAS, 0.748 µM in assay [1], 12.3 µM in assay [2] and 1.62 µM in assay [3]. The “Ratio THP1(cGAMP) IC50 / THP1(vir) IC50” value in assay [2] is listed as 16.

For the molecule `CNc1cc(-c2cnc(O[C@H]3C[C@@H](C(=O)O)N(c4nc(C(F)F)nc5c4oc4ccccc45)C3)c(N3CCOC4(COC4)[C@@H]3C)c2)ccn1` [Example 3.08], the IC50 against cGAS is 0.005 µM; in assay [1] it was 0.004 µM; in assay [2], 4.79 µM; in assay [3] it was 0.003 µM. In addition, the “Ratio THP1(cGAMP) IC50 / THP1(vir) IC50” value in assay [2] is listed as 1179.

As for `CNc1cc(-c2cnc(O[C@H]3C[C@@H](C(=O)O)N(c4nc(C(F)(F)F)nc5c4oc4ccccc45)C3)c(N3CCOC4(COC4)[C@@H]3C)c2)ccn1` [Example 3.09], the IC50 on cGAS is 0.009 µM; in assay [1], 0.008 µM; in assay [2] it was 4.82 µM; in assay [3] it was 0.008 µM. Moreover, the “Ratio THP1(cGAMP) IC50 / THP1(vir) IC50” value in assay [2] is 585.

Take `CC(=O)Nc1ccc(-c2cnc(O[C@H]3C[C@@H](C(=O)O)N(c4nc(C(F)(F)F)nc5c4oc4ccccc45)C3)c(N3CCOC4(COC4)[C@@H]3C)c2)cn1` [Example 3.10]: the IC50 against cGAS is 0.008 µM; in assay [1] it was 0.005 µM; in assay [2], 7.91 µM; in assay [3], 0.01 µM. The “Ratio THP1(cGAMP) IC50 / THP1(vir) IC50” value in assay [2] is reported as 1713.

For `C[C@@H]1N(c2cc(-c3cccc(CO)c3)cnc2O[C@H]2C[C@@H](C(=O)O)N(c3nc(C(F)F)nc4c3oc3ccccc34)C2)CCOC12COC2` [Example 3.11], the half-maximal inhibitory concentration (IC50) is 0.004 µM against cGAS, 0.005 µM in assay [1], 5.29 µM in assay [2] and 0.011 µM in assay [3]. Also, the “Ratio THP1(cGAMP) IC50 / THP1(vir) IC50” value in assay [2] was 1149.

Consider `CNc1cccc(-c2cnc(O[C@H]3C[C@@H](C(=O)O)N(c4nc(C(F)(F)F)nc5c4oc4ccccc45)C3)c(N3CCOC4(COC4)[C@@H]3C)c2)c1` [Example 3.12], for which the IC50 is 0.009 µM on cGAS, 0.006 µM in assay [1], 11.1 µM in assay [2] and 0.019 µM in assay [3]. Besides, the “Ratio THP1(cGAMP) IC50 / THP1(vir) IC50” value in assay [2] is listed as 1930.

Regarding `C[C@@H]1N(c2cc(-c3cccc(C(N)=O)c3)cnc2O[C@H]2C[C@@H](C(=O)O)N(c3nc(C(F)(F)F)nc4c3oc3ccccc34)C2)CCOC12COC2` [Example 3.13], the IC50 at cGAS was 0.009 µM; in assay [1] it was 0.025 µM; in assay [2], 8.35 µM; in assay [3], 0.065 µM. Besides, the “Ratio THP1(cGAMP) IC50 / THP1(vir) IC50” value in assay [2] was found to be 335.

Turning to `COc1ncccc1-c1cnc(O[C@H]2C[C@@H](C(=O)O)N(c3nc(C(F)(F)F)nc4c3oc3ccccc34)C2)c(N2CCOC3(COC3)[C@@H]2C)c1` [Example 3.14], the IC50 at cGAS is 0.011 µM; in assay [1], 0.01 µM; in assay [2], 7.83 µM; in assay [3], 0.026 µM. Moreover, the “Ratio THP1(cGAMP) IC50 / THP1(vir) IC50” value in assay [2] was determined as 822.

`CC(=O)Nc1cc(-c2cnc(O[C@H]3C[C@@H](C(=O)O)N(c4nc(C(F)F)nc5c4oc4ccccc45)C3)c(N3CCOC4(COC4)[C@@H]3C)c2)ccn1` [Example 3.15]: the IC50 against cGAS was 0.01 µM; in assay [1] it was 0.057 µM; in assay [2], 19.9 µM; in assay [3], 0.022 µM. The “Ratio THP1(cGAMP) IC50 / THP1(vir) IC50” value in assay [2] came to 348.

Regarding `CSc1cc(-c2cnc(O[C@H]3C[C@@H](C(=O)O)N(c4nc(C(F)F)nc5c4oc4ccccc45)C3)c(N3CCOC4(COC4)[C@@H]3C)c2)ccn1` [Example 3.16, (2S,4S)-1-[4-(difluoromethyl)-8-oxa-3,5-diazatricyclo-[7.4.0.0^2.7]trideca-1(9),2(7),3,5,10,12-hexaen-6-yl]-4-({5-[(9S)-9-methyl-2,5-dioxa-8-azaspiro[3.5]nonan-8-yl]-2′-(methylsulfanyl)-[3,4′-bipyridin]-6-yl}oxy)-pyrrolidine-2-carboxylic acid], the IC50 is 0.015 µM against cGAS, 0.019 µM in assay [1], 11.8 µM in assay [2] and 0.038 µM in assay [3]. Moreover, in assay [2], the “Ratio THP1(cGAMP) IC50 / THP1(vir) IC50” value stood at 629.

For `C[C@@H]1N(c2cc(-c3cccc(N(C)C)c3)cnc2O[C@H]2C[C@@H](C(=O)O)N(c3nc(C(F)(F)F)nc4c3oc3ccccc34)C2)CCOC12COC2` [Example 3.17], the IC50 at cGAS was 0.02 µM; in assay [1] it was 0.011 µM; in assay [2], 16.8 µM; in assay [3], 0.043 µM. Also, the “Ratio THP1(cGAMP) IC50 / THP1(vir) IC50” value in assay [2] amounted to 1542.

Regarding `CNc1cncc(-c2cnc(O[C@H]3C[C@@H](C(=O)O)N(c4nc(C(F)(F)F)nc5c4oc4ccccc45)C3)c(N3CCOC4(COC4)[C@@H]3C)c2)c1` [Example 3.18], the IC50 against cGAS is 0.003 µM; in assay [1], 0.007 µM; in assay [2], 4.76 µM; in assay [3], 0.044 µM. For the same molecule, the “Ratio THP1(cGAMP) IC50 / THP1(vir) IC50” value in assay [2] was 645.

Take `C[C@@H]1N(c2cc(-c3cccc(CN)c3)cnc2O[C@H]2C[C@@H](C(=O)O)N(c3nc(C(F)F)nc4c3oc3ccccc34)C2)CCOC12COC2` [Example 3.19]: the IC50 against cGAS is 0.008 µM; in assay [1], 0.267 µM; in assay [2], greater than 16.6 µM; in assay [3], 0.047 µM. Moreover, in assay [2], the “Ratio THP1(cGAMP) IC50 / THP1(vir) IC50” value was greater than 62.

For `C[C@@H]1N(c2cc(-c3cn(C)cn3)cnc2O[C@H]2C[C@@H](C(=O)O)N(c3nc(C(F)(F)F)nc4c3oc3ccccc34)C2)CCOC12COC2` [Example 3.20], the IC50 at cGAS was 0.003 µM; in assay [1], 0.03 µM; in assay [2] it was 11.5 µM; in assay [3], 0.05 µM. The “Ratio THP1(cGAMP) IC50 / THP1(vir) IC50” value in assay [2] is on record as 383.

As for `C[C@@H]1N(c2cc(-c3ccnc(C#N)c3)cnc2O[C@H]2C[C@@H](C(=O)O)N(c3nc(C(F)F)nc4c3oc3ccccc34)C2)CCOC12COC2` [Example 3.21], the concentration for half-maximal inhibition (IC50) at cGAS is 0.004 µM; in assay [1], 0.024 µM; in assay [2] it was 11.7 µM; in assay [3] it was 0.055 µM. Further, the “Ratio THP1(cGAMP) IC50 / THP1(vir) IC50” value in assay [2] turned out to be 483.

`CNCc1cccc(-c2cnc(O[C@H]3C[C@@H](C(=O)O)N(c4nc(C(F)(F)F)nc5c4oc4ccccc45)C3)c(N3CCOC4(COC4)[C@@H]3C)c2)c1` [Example 3.22]: the IC50 against cGAS was 0.016 µM; in assay [1], 0.177 µM; in assay [2] it was 8.91 µM; in assay [3], 0.07 µM. Further, in assay [2], the “Ratio THP1(cGAMP) IC50 / THP1(vir) IC50” value stood at 50.
